Test results published in ChEMBL document CHEMBL1201862, “PubChem BioAssay data set” (2004).
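Values below derive from 48-hour exposures of cells grown in 96-well plates, with endpoints linearly interpolated between the two concentrations bracketing the appropriate inhibition level. GI50 marks 50% less growth.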 Activity calls are given as the source filed them. No stated cut-off is given here; in the data, active = GI50 up to about 1.1 µM and inactive = higher.

Columns and labels:
Assay in all cases: NCI-60 cell line screen, 48 h
SN12C = system: SN12C
NCI-H460 = system: NCI-H460
HT-29 = system: HT-29
LXFL 529 = system: LXFL 529
EKVX = system: EKVX
SR = system: SR
NCI-H23 = system: NCI-H23
A549 = system: A549
HCC 2998 = system: HCC 2998
UACC-62 = system: UACC-62
HOP-62 = system: HOP-62
KM12 = system: KM12
K562 = system: K562
SF-295 = system: SF-295
OVCAR-3 = system: OVCAR-3
SF-539 = system: SF-539
MCF7 = system: MCF7
MDA-MB-435 = system: MDA-MB-435

Row | SMILES | GI50 (SN12C) | GI50 (NCI-H460) | GI50 (HT-29) | GI50 (LXFL 529) | GI50 (EKVX) | GI50 (SR) | GI50 (NCI-H23) | GI50 (A549) | GI50 (HCC 2998) | GI50 (UACC-62) | GI50 (HOP-62) | GI50 (KM12) | GI50 (K562) | GI50 (SF-295) | GI50 (OVCAR-3) | GI50 (SF-539) | GI50 (MCF7) | GI50 (MDA-MB-435)
1 | O=C(CCN1CCC(CCO)CC1)Nc1ccc2c(c1)C(=O)c1ccc(NC(=O)CCN3CCC(CCO)CC3)cc1C2=O | 16.5 µM (inactive) | 3.94 µM (inactive) | 13.5 µM (inactive) | 5.25 µM (inactive) | 32.5 µM (inactive) | 7.69 µM (inactive) | 26.5 µM (inactive) | 37.7 µM (inactive) | 14.4 µM (inactive) | 9.04 µM (inactive) | 17.3 µM (inactive) | 2.69 µM (inactive) | 8.05 µM (inactive) | > 100 µM (inactive) | 5.53 µM (inactive) | 6.28 µM (inactive) | – | –
2 | CN1C(=O)N(C)C2(O)c3ccccc3C(=O)C12O (stereo not drawn) | > 100 µM (inactive) | > 100 µM (inactive) | > 100 µM (inactive) | > 100 µM (inactive) | > 100 µM (inactive) | > 100 µM (inactive) | > 100 µM (inactive) | > 100 µM (inactive) | > 100 µM (inactive) | > 100 µM (inactive) | > 100 µM (inactive) | > 100 µM (inactive) | > 100 µM (inactive) | > 100 µM (inactive) | > 100 µM (inactive) | > 100 µM (inactive) | – | –
3 | CC(=O)OC1(C(C)=O)CC2(c3ccccc3)OC1(c1ccccc1)c1ccccc12 (stereo not drawn) | 35.6 µM (inactive) | 10.4 µM (inactive) | 30.1 µM (inactive) | 7.53 µM (inactive) | 5.26 µM (inactive) | 6.56 µM (inactive) | 8.34 µM (inactive) | 25.3 µM (inactive) | 16.8 µM (inactive) | 4.36 µM (inactive) | 11.6 µM (inactive) | 17.3 µM (inactive) | – | 33.3 µM (inactive) | 11.4 µM (inactive) | 32 µM (inactive) | – | –
4 | O=C(Nc1cccc(C(F)(F)F)c1)C(=O)C(C(=O)c1ccc2ccccc2c1)C1OC(=O)c2ccccc21 (stereo not drawn) | 13.2 µM (inactive) | 5.61 µM (inactive) | 13.5 µM (inactive) | 4.82 µM (inactive) | 14.5 µM (inactive) | 3.24 µM (inactive) | 6.46 µM (inactive) | 10.7 µM (inactive) | 10.8 µM (inactive) | 7.53 µM (inactive) | 11.5 µM (inactive) | 12.2 µM (inactive) | 5.38 µM (inactive) | 5.19 µM (inactive) | 16 µM (inactive) | 2.23 µM (inactive) | 7.16 µM (inactive) | 17.4 µM (inactive)
5 | CN1CCC23c4c5ccc(O)c4OC2C(=NN=C2CCC4(O)C6Cc7ccc(O)c8c7C4(CCN6C)C2O8)CCC3(O)C1C5 (stereo not drawn) | > 100 µM (inactive) | > 100 µM (inactive) | > 100 µM (inactive) | > 100 µM (inactive) | > 100 µM (inactive) | – | > 100 µM (inactive) | > 100 µM (inactive) | > 100 µM (inactive) | > 100 µM (inactive) | > 100 µM (inactive) | > 100 µM (inactive) | > 100 µM (inactive) | > 100 µM (inactive) | > 100 µM (inactive) | > 100 µM (inactive) | – | –
6 | CC(C)(CN1CCCCC1)C(=O)CC(SCCS(=O)(=O)O)c1ccc(Br)cc1 (stereo not drawn) | 1.34 µM (inactive) | 2.14 µM (inactive) | 1.75 µM (inactive) | 1.24 µM (inactive) | 2.92 µM (inactive) | – | 2.34 µM (inactive) | 1.98 µM (inactive) | 2.7 µM (inactive) | 1.84 µM (inactive) | 6.18 µM (inactive) | 2 µM (inactive) | 1.21 µM (inactive) | 5.12 µM (inactive) | – | 1.6 µM (inactive) | – | –
7 | C[C@@H]1[C@@H]2[C@@H](C=C3C4CCC5Cc6nc7c(nc6C[C@@]5(C)C4C[C@H](O)[C@]32CO)CC2CCC3C4=C[C@H]5O[C@@]6(OC(C)(CO)C[C@@H]6O)[C@H](C)[C@@]5(O)[C@]4(C)[C@@H](O)CC3[C@]2(C)C7)O[C@]12CCC(C)(C)O2 (stereo partly drawn) | 0.904 µM (active) | 0.0101 µM (active) | 0.0625 µM (active) | 0.0118 µM (active) | 0.0766 µM (active) | 0.00255 µM (active) | 0.0328 µM (active) | 0.0137 µM (active) | 0.145 µM (active) | 0.0802 µM (active) | 0.00311 µM (active) | 0.057 µM (active) | 0.0164 µM (active) | 0.000508 µM (active) | 0.388 µM (active) | 0.000764 µM (active) | 0.00075 µM (active) | –
8 | CNC(=O)OCc1nc(SC2CCCCO2)n(C)c1COC(=O)NC (stereo not drawn) | > 100 µM (inactive) | > 100 µM (inactive) | > 100 µM (inactive) | > 100 µM (inactive) | > 100 µM (inactive) | > 100 µM (inactive) | > 100 µM (inactive) | > 100 µM (inactive) | > 100 µM (inactive) | > 100 µM (inactive) | > 100 µM (inactive) | > 100 µM (inactive) | > 100 µM (inactive) | > 100 µM (inactive) | > 100 µM (inactive) | > 100 µM (inactive) | > 100 µM (inactive) | –
